{
  "source": "ChEMBL document CHEMBL1149051",
  "about": "“Isolation of flavins from the Amazonian shrub Faramea guianesis” (1994)",
  "format_in_all_cases": "functional",
  "key": {"Leishmania amazonensis [1]": {"test_system": "Leishmania amazonensis", "experiment": "Antileishmanial activity against Leishmania amazonensis H142 Guianese amastigotes in BALB/c mouse macrophages assessed as inhibition of infection at 0.05 mg/ml relative to control"}, "Leishmania amazonensis [2]": {"test_system": "Leishmania amazonensis", "experiment": "Antileishmanial activity against Leishmania amazonensis H142 Guianese amastigotes in BALB/c mouse macrophages assessed as inhibition of infection at 0.04 mg/ml relative to control"}, "Leishmania amazonensis [3]": {"test_system": "Leishmania amazonensis", "experiment": "Antileishmanial activity against Leishmania amazonensis H142 Guianese amastigotes in BALB/c mouse macrophages assessed as inhibition of infection at 0.02 mg/ml relative to control"}, "Leishmania amazonensis [4]": {"test_system": "Leishmania amazonensis", "experiment": "Antileishmanial activity against Leishmania amazonensis H142 Guianese amastigotes in BALB/c mouse macrophages assessed as survival of peritoneal macrophages at 0.25 mg/ml relative to control"}},
  "data": [
    {"smiles": "Oc1ccc(C2CCc3c(O)cc(O)cc3O2)cc1", "note": "(centres undefined)", "values": [
      {"measurement": "inhibition at 50 µg/mL", "setting": "Leishmania amazonensis [1]", "value": 57, "unit": "%"},
      {"measurement": "inhibition at 40 µg/mL", "setting": "Leishmania amazonensis [2]", "value": 100, "unit": "%"},
      {"measurement": "inhibition at 20 µg/mL", "setting": "Leishmania amazonensis [3]", "value": 100, "unit": "%"},
      {"measurement": "survival at 250 µg/mL", "setting": "Leishmania amazonensis [4]", "value": 0, "unit": "%"}
    ]}
  ]
}
